# Results: ChEMBL document CHEMBL3301361, “Experimental in vitro DMPK and physicochemical data on a set of publicly disclosed compounds”
# Assays:
# [1] = physchem
# [2] = physchem; conditions: pH 7.4 buffer
# [3] = in vitro; conditions: human
# [4] = in vitro; conditions: hepatocytes
# [5] = in vitro; conditions: human, hepatocytes
# [6] = physchem; conditions: octan-1-ol/water
# [7] = in vitro; conditions: human, plasma
# [8] = in vitro; conditions: SD, HW or BN, rat, plasma
Compound,pKa [1],solubility thermodynamic [2] [µM],microsomal CLint ([3]; liver microsomes) [µL/min/mg],hepatocyte CLint [4] [µL/min/1e6 cells],hepatocyte CLint [5] [µL/min/1e6 cells],"logD ([6]; pH 7.4, LogD7.4)",fraction unbound at 5 h ([7]; PPB),fraction unbound at 5 h [8],microsomal CLint ([3]; microsomes) [µL/min/mg],fraction unbound at 5 h [7],logD ([6]; pH 7.4)
c1ccc(SCc2ccccn2)cc1,3.8,–,–,–,–,–,–,–,–,–,–
O=C(O[C@H]1C[N+]2(CCCOc3ccccc3)CCC1CC2)C(O)(c1cccs1)c1cccs1,–,339,140,80,64,–,–,–,–,–,–
Cc1ccccc1-n1c(Cn2nc(-c3ccc(O)c(F)c3)c3c(N)ncnc32)nc2cccc(C)c2c1=O,–,25.1,–,44.7,39.8,3.55,0.02,0.0313,–,–,–
CN1CCN(c2nc3ccccc3cc2Cn2nc(-c3ccc4nc(N)sc4c3)c3c(N)ncnc32)CC1,–,100,72,81,7.59,3.09,–,–,–,–,–
CCOC(=O)N1CCC(Nc2cc(Cl)ccn2)CC1,5.3,–,–,–,–,–,–,–,–,–,–
c1ccc(CSc2nc3ccccc3[nH]2)cc1,4.2,–,–,–,–,–,–,–,–,–,–
O=C(CO)N1CCC(c2[nH]nc(-c3ccc(Cl)cc3F)c2-c2ccncn2)CC1,–,7.8,–,< 3,< 3,1.79,0.253,0.324,< 3,–,–
C[C@H]1CN(Cc2cc(Cl)ccc2OCC(=O)O)CCN1C(=O)Cc1ccc(F)cc1,–,–,–,< 3,< 3,–,–,0.0928,< 3,0.0287,–
C[C@H](Oc1ccc(Cl)cc1CN1CCN(C(=O)Cc2ccc(Cl)cc2)[C@@H](C)C1)C(=O)O,–,–,< 3,< 3,4.7,–,–,–,–,0.0256,–
NC(=O)NC(=O)C(Nc1ccc2c(c1)CCC2)c1ccccc1 (stereo not drawn),–,–,27.5,55,13.8,–,–,0.0581,–,0.03,3.3
O=C(O)/C=C/c1cccnc1,4.4,–,–,–,–,–,–,–,–,–,–
O=C(O)CCc1ccc(OCc2cccc(Br)c2)cc1,–,–,< 3,> 150,129,1.67,–,–,–,–,–
O=c1[nH]c2c(O)ccc([C@@H](O)CNCCSCCCNCCc3ccccc3)c2s1,–,1150,5,9,< 3,0.12,–,–,–,–,–
Cc1nn(-c2ccc(F)cc2)c(NS(=O)(=O)c2ccc(C#N)cc2)c1C(=O)N[C@@H](C)C(C)(C)C,–,–,–,6,< 3,0.45,0.0437,0.0801,–,–,–
Cc1cc(F)ccc1-n1nc(C(F)(F)F)cc1-c1ccc2c(c1)NC(=O)CO2,–,–,14.4,28.2,10.7,–,–,0.19,–,–,–
O=C(Nc1cc(-c2ccnc(Nc3ccccc3)c2)ccn1)C1CCOCC1,–,–,12.6,> 150,16.2,3.7,–,–,–,–,–
CC(C)(C)NS(=O)(=O)c1cncc(-c2ccc3nc(NC(=O)NCC(=O)N4CCCC4)nn3c2)c1,–,6.6,–,< 3,4.79,1.37,0.329,0.232,5,–,–
CC(C)(C)NS(=O)(=O)c1cncc(-c2ccc3nc(NC(=O)NCC(=O)N4CCOCC4)nn3c2)c1,–,53.7,5,5,3.39,0.96,–,0.535,–,–,–
O=C1COC2(CCN(S(=O)(=O)c3ccc(-c4ccc5cnccc5c4)cc3)CC2)CN1C1CC1,–,2.2,115,> 150,> 150,3.32,0.0018,–,–,–,–
CCc1nc2c(C)cc(C)nc2[nH]1,5.5,–,–,–,–,–,–,–,–,–,–

Compound,pKa [1],solubility thermodynamic [2] [µM],microsomal CLint ([3]; liver microsomes) [µL/min/mg],hepatocyte CLint [4] [µL/min/1e6 cells],hepatocyte CLint [5] [µL/min/1e6 cells],"logD ([6]; pH 7.4, LogD7.4)",fraction unbound at 5 h ([7]; PPB),fraction unbound at 5 h [8],microsomal CLint ([3]; microsomes) [µL/min/mg],fraction unbound at 5 h [7],logD ([6]; pH 7.4)
COc1cccc2c1c(NS(=O)(=O)c1ccc(Cl)s1)nn2Cc1cccc(CNC(=O)[C@H]2COCCN2)c1,–,–,–,28,16,–,0.0156,0.0052,58.5,–,–
COc1cccc2c1c(NS(=O)(=O)c1ccc(Cl)s1)nn2Cc1cccc(CNC(=O)[C@@H]2COCCN2)c1,–,27.5,–,26,20,1.61,0.016,0.0156,40.5,–,–
O=C(O)C[C@H]1CC[C@H](c2ccc(-c3ccc(Nc4ccc(C(F)(F)F)nc4)cn3)cc2)CC1,–,1.1,< 3,11.5,< 3,3.8,–,–,–,–,–
O=C(c1ccccc1)N1CCN(Cc2ccccc2)CC1,6.2,–,–,–,–,–,–,–,–,–,–
O=C(N[C@H](Cc1ccc(Cl)cc1)C(=O)N1CCC(Cn2cncn2)(C2CCCCC2)CC1)[C@H]1Cc2ccccc2CN1,–,–,–,40.7,27.5,–,0.007,0.0052,–,–,–
c1ccc(CSc2nc3ccccc3o2)nc1,4.3,–,–,–,–,–,–,–,–,–,–
O=c1c2sccc2n(CC2COc3ccccc3O2)c(=O)n1O (stereo not drawn),–,120,< 3,14.8,135,1.44,–,–,–,–,–
Cc1nc2c(OCc3ccccc3)cccn2c1CC#N,5.6,–,–,–,–,–,–,–,–,–,–
O=C(Cc1ccc(Cl)c(C(F)(F)F)c1)Nc1cccc2c(=O)n(CCO)ccc12,–,–,< 3,11,32,–,0.0097,0.072,–,–,–
O=C(NCC1(O)CCCCCC1)c1cc(-n2ncc(=O)[nH]c2=O)ccc1Cl,–,–,< 3,< 3,< 3,0.26,0.24,0.129,–,–,–
Cn1c([S+]([O-])Cc2ccccn2)nc2ccccc21 (stereo not drawn),2.6,–,–,–,–,–,–,–,–,–,–
CN(C)CCCOc1nn(Cc2ccccc2)c2ccccc12 [BENZYDAMINE],–,–,–,> 150,7.76,2.4,–,–,17.8,–,–
CC(C)NCC(O)COc1ccc(CCOCC2CC2)cc1 (stereo not drawn) [BETAXOLOL],–,–,–,12,< 3,–,0.725,0.409,< 3,–,–
CCC(=O)N[C@H]1CC[C@@H](C(=O)N(C)c2ccc(-c3nc4ccccc4o3)cc2)C1 [BI 99179],–,45.7,–,7.59,4.57,3.4,–,–,11,–,–
C[C@]12CCC(=O)C=C1C=C[C@@H]1[C@@H]2CC[C@@]2(C)[C@H]1CC[C@@]21CCC(=O)O1 [CANRENONE],–,–,14.4,45.7,6.61,3.2,0.0594,0.0383,–,–,–
Cc1ccc(C)c(OCCCC(C)(C)C(=O)O)c1 [GEMFIBROZIL],–,–,–,> 150,66.1,0.72,0.0023,0.0153,29.5,–,–
O=C(c1ccc(F)cc1)C1CCN(CCn2c(=O)[nH]c3ccccc3c2=O)CC1 [KETANSERIN],–,–,–,24.6,30.2,–,0.0968,0.0064,–,–,–
O=C1Nc2ccc(Cl)cc2C(c2ccccc2Cl)=NC1O (stereo not drawn) [LORAZEPAM],–,178,7.94,17.4,4.57,–,–,–,–,0.072,–
Cc1c(C)c2c(c(C)c1O)CCC(C)(COc1ccc(CC3SC(=O)NC3=O)cc1)O2 (stereo not drawn) [TROGLITAZONE],–,–,49,> 150,28.2,–,0.0009,–,–,–,–
